This assay concerns Kasumi-1 acute myeloid leukemia cells. Briefly: Growth Inhibition Assay (Alamar blue), Kasumi-1. It counts as cell-based, human. The settings on record: Homo sapiens, Kasumi 1, 72 h, Kasumi-1 cells. The procedure: The IC50 values listed for some of these compounds illustrate the antiproliferative effects of the subject compounds and were obtained using the Growth Inhibition assays described herein.
Growth Inhibition Assay. Antiproliferative effects of inhibitors were evaluated using the dye Alamar blue. This reagent offers a rapid objective measure of cell viability in cell culture, and it uses the indicator dye resazurin to measure the metabolic capacity of cells, an indicator of cell viability. Briefly, cells were plated on Costar 96-well plates. For attached cells (such as SKBr3, MDA-MB-468, LNCaP, MRCS), 8,000 cells/well were used. For suspension cells (such as MOLM-13, Kasumi-1, OCI-Ly7, PBL), 20,000 cells/well were plated. Cells were allowed to incubate for 24 h at 37° C. before drug treatment. Drugs were added in triplicates at the indicated concentrations, and the plate was incubated for 72 h. Alamar Blue (440 μM) was added, and the plate read 6 h later using the Analyst GT (Fluorescence intensity mode, excitation 530 nm, emission 580 nm, with 560=dichroic mirror). Results were analyzed using the Softmax Pro software. The percentage cell growth inhibition was calculated by comparing fluorescence readings obtained from treated versus control cells, accounting for initial cell population (time zero).
(In general: The colour change of resazurin is a common sign of viable cells or microbes.)

IC50 data for 27 compounds are collected here from patent publication US9567318B2, “Substituted pyrimidine compounds and uses thereof” (Memorial Sloan-Kettering Cancer Center, priority 2009, dated 2017).

Each structure is given as a SMILES string.

As usually defined, the IC50 is the concentration at which inhibition is half-maximal. A high value points to weaker potency.

The compound `COc1nc(N2CCN(C)CC2)nc(OC)c1Sc1nc(NC(C)=O)cc(NC(C)=O)n1` [YK1, N,N′-(2-(4,6-dimethoxy-2-(4-methylpiperazin-1-yl)pyrimidin-5-ylthio)pyrimidine-4,6-diyl)diacetamide] registered an IC50 of 15 µM.

`COc1nc(N2CCN(C)CC2)nc(OC)c1Sc1nc(N)cc(N)n1` [YK2, 2-(4,6-dimethoxy-2-(4-methylpiperazin-1-yl)pyrimidin-5-ylthio)pyrimidine-4,6-diamine]: the half-inhibitory concentration (IC50) was determined as 57.2 µM. For `COc1nc(N)nc(OC)c1Sc1nc(N)cc(NC(=O)CCN2CCN(C)CC2)n1` [YK6, N-(6-amino-2-(2-amino-4,6-dimethoxypyrimidin-5-ylthio)pyrimidin-4-yl)-3-(4-methylpiperazin-1-yl)propanamide] the value was 23 µM. In turn, `COc1nc(N2CCOCC2)nc(OC)c1Sc1nc(NC(C)=O)cc(NC(C)=O)n1` [YK8, N,N′-(2-(4,6-dimethoxy-2-morpholinopyrimidin-5-ylthio)pyrimidine-4,6-diyl)diacetamide] had an IC50 above 100 µM.

Compound `COc1nc(N2CCCCC2)nc(OC)c1Sc1nc(NC(C)=O)cc(NC(C)=O)n1` [YK9, N,N′-(2-(4,6-dimethoxy-2-(piperidin-1-yl)pyrimidin-5-ylthio)pyrimidine-4,6-diyl)diacetamide] displayed an IC50 above 100 µM. As to `COc1nc(N2CCOCC2)nc(OC)c1Sc1nc(N)cc(N)n1` [YK11, 2-(4,6-dimethoxy-2-morpholinopyrimidin-5-ylthio)pyrimidine-4,6-diamine], the half-maximal inhibitory concentration (IC50) was above 100 µM.

In the case of `COc1nc(N2CCCCC2)nc(OC)c1Sc1nc(N)cc(N)n1` [YK12, 2-(4,6-dimethoxy-2-(piperidin-1-yl)pyrimidin-5-ylthio)pyrimidine-4,6-diamine], the IC50 is above 100 µM. Turning to `CCC(=O)Nc1cc(N)nc(Sc2c(OC)nc(N3CCN(C)CC3)nc2OC)n1` [YK13, N-(6-amino-2-(4,6-dimethoxy-2-(4-methylpiperazin-1-yl)pyrimidin-5-ylthio)pyrimidin-4-yl)propionamide], the IC50 was above 100 µM.

On to `CCC(=O)Nc1cc(N)nc(Sc2c(OC)nc(N3CCN(CCO)CC3)nc2OC)n1` [YK14, N-(6-amino-2-(2-(4-(2-hydroxyethyl)piperazin-1-yl)-4,6-dimethoxypyrimidin-5-ylthio)pyrimidin-4-yl)propionamide], for which the IC50 was above 100 µM. In turn, `CCC(=O)Nc1cc(N)nc(Sc2c(OC)nc(N3CCOCC3)nc2OC)n1` [YK15, N-(6-amino-2-(4,6-dimethoxy-2-morpholinopyrimidin-5-ylthio)pyrimidin-4-yl)propionamide] registered an IC50 above 100 µM. `CCC(=O)Nc1cc(N)nc(Sc2c(OC)nc(N3CCCCC3)nc2OC)n1` [YK16, N-(6-amino-2-(4,6-dimethoxy-2-(piperidin-1-yl)pyrimidin-5-ylthio)pyrimidin-4-yl)propionamide]: the IC50 is above 100 µM.

As for `C=CC(=O)Nc1cc(N)nc(Sc2c(OC)nc(N3CCOCC3)nc2OC)n1` [YK18, N-(6-amino-2-(4,6-dimethoxy-2-morpholinopyrimidin-5-ylthio)pyrimidin-4-yl)acrylamide], the IC50 is 3 µM.

In the case of `C=CC(=O)Nc1cc(N)nc(Sc2c(OC)nc(N3CCCCC3)nc2OC)n1` [YK19, N-(6-amino-2-(4,6-dimethoxy-2-(piperidin-1-yl)pyrimidin-5-ylthio)pyrimidin-4-yl)acrylamide], half-maximal inhibition (IC50) required 2.5 µM. With `CCCCCCCC(=O)Nc1cc(N)nc(Sc2c(OC)nc(N3CCN(C)CC3)nc2OC)n1` [YK20, N-(6-amino-2-(4,6-dimethoxy-2-(4-methylpiperazin-1-yl)pyrimidin-5-ylthio)pyrimidin-4-yl)octanamide], half-maximal inhibition (IC50) was put at 6.3 µM. Turning to `CCCCCCCC(=O)Nc1cc(N)nc(Sc2c(OC)nc(N3CCN(CCO)CC3)nc2OC)n1` [YK21, N-(6-amino-2-(2-(4-(2-hydroxyethyl)piperazin-1-yl)-4,6-dimethoxypyrimidin-5-ylthio)pyrimidin-4-yl)octanamide], the IC50 came to 7.2 µM.

`CCCCCCCC(=O)Nc1cc(N)nc(Sc2c(OC)nc(N3CCOCC3)nc2OC)n1` [YK22, N-(6-amino-2-(4,6-dimethoxy-2-morpholinopyrimidin-5-ylthio)pyrimidin-4-yl)octanamide] gave an IC50 of 12.3 µM.

`CCCCCCCC(=O)Nc1cc(N)nc(Sc2c(OC)nc(N3CCCCC3)nc2OC)n1` [YK23, N-(6-amino-2-(4,6-dimethoxy-2-(piperidin-1-yl)pyrimidin-5-ylthio)pyrimidin-4-yl)octanamide]: the IC50 turned out to be 13.2 µM.

`CCCCN1CCN(c2nc(OC)c(Sc3nc(NC(C)=O)cc(NC(C)=O)n3)c(OC)n2)CC1` [YK24, N,N′-(2-(2-(4-butylpiperazin-1-yl)-4,6-dimethoxypyrimidin-5-ylthio)pyrimidine-4,6-diyl)diacetamide]: half-maximal inhibition (IC50) was put at 16.8 µM. Regarding `CCCCN1CCN(c2nc(OC)c(Sc3nc(N)cc(N)n3)c(OC)n2)CC1` [YK25, 2-(2-(4-butylpiperazin-1-yl)-4,6-dimethoxypyrimidin-5-ylthio)pyrimidine-4,6-diamine], the IC50 is above 100 µM. Take `CCOc1nc(N2CCN(C)CC2)nc(OCC)c1Sc1nc(NC(C)=O)cc(NC(C)=O)n1` [YK29, N,N′-(2-(4,6-diethoxy-2-(4-methylpiperazin-1-yl)pyrimidin-5-ylthio)pyrimidine-4,6-diyl)diacetamide]: 76.7 µM corresponded to half-maximal inhibition (IC50). For `C=CC(=O)Nc1cc(N)nc(Sc2c(OCC)nc(N3CCN(C)CC3)nc2OCC)n1` [YK30, N-(6-amino-2-(4,6-diethoxy-2-(4-methylpiperazin-1-yl)pyrimidin-5-ylthio)pyrimidin-4-yl)acrylamide] the value was 0.48 µM. Turning to `CCOc1nc(N2CCN(C)CC2)nc(OCC)c1Sc1nc(N)cc(NC(=O)C2CC2)n1` [YK33, N-(6-amino-2-(4,6-diethoxy-2-(4-methylpiperazin-1-yl)pyrimidin-5-ylthio)pyrimidin-4-yl)cyclopropanecarboxamide], 88.7 µM corresponded to half-maximal inhibition (IC50).

For `C/C=C/C(=O)Nc1cc(N)nc(Sc2c(OCC)nc(N3CCN(C)CC3)nc2OCC)n1` [YK34, (E)-N-(6-amino-2-(4,6-diethoxy-2-(4-methylpiperazin-1-yl)pyrimidin-5-ylthio)pyrimidin-4-yl)but-2-enamide], the IC50 was 55 µM.

In the case of `C=CC(=O)Nc1cc(N)nc(Sc2c(OCC)nc(N3CCCCC3)nc2OCC)n1` [YK37, N-(6-amino-2-(4,6-diethoxy-2-(piperidin-1-yl)pyrimidin-5-ylthio)pyrimidin-4-yl)acrylamide], the IC50 turned out to be 2.5 µM. In the case of `CCOc1nc(N2CCCCC2)nc(OCC)c1Sc1nc(N)cc(NC(=O)CC)n1` [YK38, N-(6-amino-2-(4,6-diethoxy-2-(piperidin-1-yl)pyrimidin-5-ylthio)pyrimidin-4-yl)propionamide] it was 50 µM. With `CCOc1nc(N2CCCCC2)nc(OCC)c1Sc1nc(N)cc(NC(=O)C2CC2)n1` [YK40, N-(6-amino-2-(4,6-diethoxy-2-(piperidin-1-yl)pyrimidin-5-ylthio)pyrimidin-4-yl)cyclopropanecarboxamide], the IC50 was found to be 38.3 µM. `CCOc1nc(N2CCCCC2)nc(OCC)c1Sc1nc(NC(=O)C2CC2)cc(NC(=O)C2CC2)n1` [YK41, N,N′-(2-(4,6-diethoxy-2-(piperidin-1-yl)pyrimidin-5-ylthio)pyrimidine-4,6-diyl)dicyclopropanecarboxamide]: the IC50 was above 100 µM.
